Test results: patent publication US20230167073A1 (Teijin Pharma Limited, priority 2020, published 2023)
pIC50: −log10 of the molar value.

What follows are compounds tested against T1, Human TRPC6 (Homo sapiens, UniProt Q9Y210) (assay: Evaluation of TRPC6 channel inhibitory activity (1), FLIPR Calcium 5 Assay Kit, OAG stimulation (Compound Nos. 1-1293)). Settings: not given.
T1 construct: expressed in transfected cells
T1 sequence (Q9Y210 1-931): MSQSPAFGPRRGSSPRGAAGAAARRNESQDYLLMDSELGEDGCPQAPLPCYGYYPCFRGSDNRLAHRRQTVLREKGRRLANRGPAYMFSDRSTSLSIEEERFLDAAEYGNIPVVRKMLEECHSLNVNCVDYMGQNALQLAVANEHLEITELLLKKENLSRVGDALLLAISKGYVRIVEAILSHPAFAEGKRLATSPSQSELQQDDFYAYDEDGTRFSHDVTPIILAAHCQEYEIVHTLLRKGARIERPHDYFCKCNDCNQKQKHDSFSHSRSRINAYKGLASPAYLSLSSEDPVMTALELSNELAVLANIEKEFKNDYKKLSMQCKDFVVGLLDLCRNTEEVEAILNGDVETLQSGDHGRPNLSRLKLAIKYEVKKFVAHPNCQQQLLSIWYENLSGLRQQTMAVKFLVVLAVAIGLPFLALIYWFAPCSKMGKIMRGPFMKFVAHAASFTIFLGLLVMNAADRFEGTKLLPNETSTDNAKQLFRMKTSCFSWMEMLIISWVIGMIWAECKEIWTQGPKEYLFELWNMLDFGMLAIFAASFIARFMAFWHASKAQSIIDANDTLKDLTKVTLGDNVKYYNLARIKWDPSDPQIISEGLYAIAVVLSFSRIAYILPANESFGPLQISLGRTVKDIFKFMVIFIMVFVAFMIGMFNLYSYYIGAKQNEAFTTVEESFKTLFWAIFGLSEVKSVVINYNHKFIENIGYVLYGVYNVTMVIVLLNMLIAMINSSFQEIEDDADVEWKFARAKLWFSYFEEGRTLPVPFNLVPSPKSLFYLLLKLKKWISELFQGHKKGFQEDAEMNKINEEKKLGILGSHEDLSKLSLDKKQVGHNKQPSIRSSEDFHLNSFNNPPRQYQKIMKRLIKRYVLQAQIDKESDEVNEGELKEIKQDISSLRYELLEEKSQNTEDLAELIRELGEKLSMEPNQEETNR
Type: cell-based
Summary of the method: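 Stable human TRPC6 line; fluorescent Ca2+ dye loading, then 20 min compound exposure before 30 μM OAG trigger. Peak-minus-baseline signal converted to % inhibition against untreated and unstimulated wells; potency given as pIC50 band.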

Row | SMILES | pIC50
1 | Cc1cc(Oc2cc(C#N)ccc2-c2ncc(CCN)cn2)cc(N2C3CCC2COC3)n1 [compound 445, 4-[5-(2-aminoethyl)pyrimidin-2-yl]-3-[2-methyl-6-(3-oxa-8-azabicyclo[3.2.1]octan-8-yl)pyridin-4-yl]oxybenzonitrile] | > 8.00
2 | Cc1cc(Oc2cc(C#N)ccc2-c2ccc([C@H](O)CN)cn2)cc(N2C3CCC2COC3)n1 [compound 446, 4-[5-[(1S)-2-amino-1-hydroxyethyl]pyridin-2-yl]-3-[2-methyl-6-(3-oxa-8-azabicyclo[3.2.1]octan-8-yl)pyridin-4-yl]oxybenzonitrile] | > 8.00

Same assay, conditions: Human TRPC6 stably-expressing cells, OAG 30 μM, FLIPR Calcium 5 Assay Kit; read-out: Inhibitory activity (pIC50 class) (converted)

Row | SMILES | IC50 [nM]
3 | Cn1nc(-c2ccccc2)cc1Oc1cc(C#N)ccc1-c1ccc(C(N)C(=O)O)cn1 (stereo not shown) [compound 428, 2-amino-2-[6-[4-cyano-2-(2-methyl-5-phenylpyrazol-3-yl)oxyphenyl]pyridin-3-yl]acetic acid] | 10 to 1000
4 | Cc1cc(Oc2cc(C#N)ccc2-c2ccc([C@H](O)CN)cn2)cc(N2CCOCC2)n1 [compound 429, 4-[5-[(1S)-2-amino-1-hydroxyethyl]pyridin-2-yl]-3-(2-methyl-6-morpholin-4-ylpyridin-4-yl)oxybenzonitrile] | < 10
5 | Cc1cc(Oc2cc(C#N)ccc2-c2ncc([C@H](O)CN)cn2)cc(N2CCOCC2)n1 [compound 430, 4-[5-[(1S)-2-amino-1-hydroxyethyl]pyrimidin-2-yl]-3-(2-methyl-6-morpholin-4-ylpyridin-4-yl)oxybenzonitrile] | < 10
6 | N#Cc1ccc(-c2ccc(C(N)C(=O)O)cn2)c(Oc2cnnc(-c3ccccc3)c2)c1 (stereo not shown) [compound 433, 2-amino-2-[6-[4-cyano-2-(6-phenylpyridazin-4-yl)oxyphenyl]pyridin-3-yl]acetic acid] | 10 to 1000
7 | Cc1nc(Oc2cc(C#N)ccc2-c2ncc(CCN)cn2)cc(N2CCOCC2)n1 [compound 434, 4-[5-(2-aminoethyl)pyrimidin-2-yl]-3-(2-methyl-6-morpholin-4-ylpyrimidin-4-yl)oxybenzonitrile] | < 10
8 | Cc1cc(Oc2cc(C#N)ccc2-c2ccc(C[C@H](N)C(=O)O)cc2)cc(N2CCOCC2)n1 [compound 435, (2S)-2-amino-3-[4-[4-cyano-2-(2-methyl-6-morpholin-4-ylpyridin-4-yl)oxyphenyl]phenyl]propanoic acid] | > 1000
9 | Cc1cc(Oc2cc(C#N)ccc2-c2ccc([C@H](O)CN)cn2)cc(C)n1 [compound 437, 4-[5-[(1S)-2-amino-1-hydroxyethyl]pyridin-2-yl]-3-(2,6-dimethylpyridin-4-yl)oxybenzonitrile] | 10 to 1000
10 | Cc1cc(Oc2cc(C#N)ccc2-c2ncc(CCN)cn2)cc(C)n1 [compound 438, 4-[5-(2-aminoethyl)pyrimidin-2-yl]-3-(2,6-dimethylpyridin-4-yl)oxybenzonitrile] | 10 to 1000
11 | Cc1cc(Oc2cc(C#N)ccc2-c2ncc(CCN)cn2)cc(N2CCO[C@H](C(F)F)C2)n1 [compound 439, 4-[5-(2-aminoethyl)pyrimidin-2-yl]-3-[2-[(2S)-2-(difluoromethyl)morpholin-4-yl]-6-methylpyridin-4-yl]oxybenzonitrile] | < 10
12 | Cc1cc(Oc2cc(C#N)ccc2-c2ncc(CCN)cn2)cc(N2CCO[C@@H](C(F)F)C2)n1 [compound 444, 4-[5-(2-aminoethyl)pyrimidin-2-yl]-3-[2-[(2R)-2-(difluoromethyl)morpholin-4-yl]-6-methylpyridin-4-yl]oxybenzonitrile] | < 10
13 | Cc1nc(Oc2cc(C#N)ccc2-c2ncc(CCN)cn2)cc(N2CCCCC2)n1 [compound 447, 4-[5-(2-aminoethyl)pyrimidin-2-yl]-3-(2-methyl-6-piperidin-1-ylpyrimidin-4-yl)oxybenzonitrile] | < 10
14 | Cc1nc(Oc2cc(C#N)ccc2-c2ncc(CCN)cn2)cc(N2CCCC2)n1 [compound 448, 4-[5-(2-aminoethyl)pyrimidin-2-yl]-3-(2-methyl-6-pyrrolidin-1-ylpyrimidin-4-yl)oxybenzonitrile] | < 10
15 | Cc1nc(Oc2cc(C#N)ccc2-n2cc(CC(N)C(=O)O)c3ccccc32)cc(-c2ccccc2)n1 (stereo not shown) [compound 449, 2-amino-3-[1-[4-cyano-2-(2-methyl-6-phenylpyrimidin-4-yl)oxyphenyl]indol-3-yl]propanoic acid] | > 1000
16 | Cc1cc(Oc2cc(C#N)ccc2-c2ncc(CCN)cn2)cc(N2CC3CCC(C2)O3)n1 [compound 454, 4-[5-(2-aminoethyl)pyrimidin-2-yl]-3-[2-methyl-6-(8-oxa-3-azabicyclo[3.2.1]octan-3-yl)pyridin-4-yl]oxybenzonitrile] | < 10
17 | Cc1cc(Oc2cc(C#N)ccc2-c2ncc(CCN)cn2)cc(N2CCNC(=O)C2)n1 [compound 455, 4-[5-(2-aminoethyl)pyrimidin-2-yl]-3-[2-methyl-6-(3-oxopiperazin-1-yl)pyridin-4-yl]oxybenzonitrile] | > 1000
18 | Cc1cc(Oc2cc(C#N)ccc2-c2ccc(CCN)cn2)cc(N2CCNC(=O)C2)n1 [compound 456, 4-[5-(2-aminoethyl)pyridin-2-yl]-3-[2-methyl-6-(3-oxopiperazin-1-yl)pyridin-4-yl]oxybenzonitrile] | > 1000

The next lines start with the values.

Row | IC50 [nM] | SMILES
19 | < 10 | Cn1nc(C2CC2)cc1Oc1cc(C#N)ccc1-c1ccc(C(N)C(=O)O)cn1 (stereo not shown) [compound 426, 2-amino-2-[6-[4-cyano-2-(5-cyclopropyl-2-methylpyrazol-3-yl)oxyphenyl]pyridin-3-yl]acetic acid]
20 | 10 to 1000 | Cn1nc(C2CC2)cc1Oc1cc(C#N)ccc1-c1ccc(C2CNCCO2)cn1 (stereo not shown) [compound 427, 3-(5-cyclopropyl-2-methylpyrazol-3-yl)oxy-4-(5-morpholin-2-ylpyridin-2-yl)benzonitrile]
21 | 10 to 1000 | Cn1nc(C2CC2)cc1Oc1cc(C#N)ccc1-c1cnc(NCCN)nc1 [compound 431, 4-[2-(2-aminoethylamino)pyrimidin-5-yl]-3-(5-cyclopropyl-2-methylpyrazol-3-yl)oxybenzonitrile]
22 | < 10 | Cn1nc(C2CC2)cc1Oc1cc(C#N)ccc1-c1ncc(NCCN)cn1 [compound 432, 4-[5-(2-aminoethylamino)pyrimidin-2-yl]-3-(5-cyclopropyl-2-methylpyrazol-3-yl)oxybenzonitrile]
23 | > 1000 | Cn1nc(C2CC2)cc1Oc1cc(C#N)ccc1-c1ccc(C[C@H](N)C(=O)O)cc1 [compound 436, (2S)-2-amino-3-[4-[4-cyano-2-(5-cyclopropyl-2-methylpyrazol-3-yl)oxyphenyl]phenyl]propanoic acid]
24 | < 10 | Cn1nc(C2CCOCC2)cc1Oc1cc(C#N)ccc1-c1ccc(CN)cn1 [compound 440, 4-[5-(aminomethyl)pyridin-2-yl]-3-[2-methyl-5-(oxan-4-yl)pyrazol-3-yl]oxybenzonitrile]
25 | < 10 | Cn1nc(C2CCOCC2)cc1Oc1cc(C#N)ccc1-c1ncc(CN)cn1 [compound 441, 4-[5-(aminomethyl)pyrimidin-2-yl]-3-[2-methyl-5-(oxan-4-yl)pyrazol-3-yl]oxybenzonitrile]
26 | 10 to 1000 | Cn1nc(C2CCOCC2)cc1Oc1cc(C#N)ccc1-c1ccc([C@H](O)CN)cn1 [compound 442, 4-[5-[(1S)-2-amino-1-hydroxyethyl]pyridin-2-yl]-3-[2-methyl-5-(oxan-4-yl)pyrazol-3-yl]oxybenzonitrile]
27 | 10 to 1000 | Cn1nc(C2CC2)cc1Oc1cc(C#N)ccc1-c1cc(CN)ccn1 [compound 443, 4-[4-(aminomethyl)pyridin-2-yl]-3-(5-cyclopropyl-2-methylpyrazol-3-yl)oxybenzonitrile]
28 | > 1000 | Cn1nc(C2CC2)cc1Oc1cc(C#N)ccc1-c1cc(N)ccn1 [compound 450, 4-(4-aminopyridin-2-yl)-3-(5-cyclopropyl-2-methylpyrazol-3-yl)oxybenzonitrile]
29 | > 1000 | Cn1nc(C2CC2)cc1Oc1cc(C#N)ccc1-c1cccc(N)n1 [compound 451, 4-(6-aminopyridin-2-yl)-3-(5-cyclopropyl-2-methylpyrazol-3-yl)oxybenzonitrile]
30 | > 1000 | Cn1nc(C2CC2)cc1Oc1cc(C#N)ccc1-c1ccc2ccnc(N)c2c1 [compound 452, 4-(1-aminoisoquinolin-7-yl)-3-(5-cyclopropyl-2-methylpyrazol-3-yl)oxybenzonitrile]
31 | > 1000 | Cn1nc(C2CC2)cc1Oc1cc(C#N)ccc1-c1cccc2c(N)nccc12 [compound 453, 4-(1-aminoisoquinolin-5-yl)-3-(5-cyclopropyl-2-methylpyrazol-3-yl)oxybenzonitrile]
